Results taken from the RepoRT retention time repository (doi:10.1021/acs.analchem.2c02893).

Assay: RP, Thermo Scientific Acclaim RSLC 120 C18, 100 × 2.1 mm, 2.2 µm, 30 °C, 0.2 mL/min, estimated dead time 1.1 min; A: 90% water + 10% methanol + 0.01% formic acid + 5 mM ammonium formate, pH 3.61; B: methanol + 0.01% formic acid + 5 mM ammonium formate, pH 3.61; gradient (min/%B) 0/1 1/1 2/39 13/99.9 15/99.9 15.1/1 20.1/1
Conditions: stereoisomer not certain

SMILES | LC retention time
CCCc1nn(C)c2c(=S)nc(-c3cc(S(=O)(=O)N4CCN(C)CC4)ccc3OCC)[nH]c12 [Sildenafil-Thio] | 10.6 min
CN1CCN(C(=O)OC2c3nccnc3C(=O)N2c2ccc(Cl)cn2)CC1 (centres undefined) [Zopiclone] | 4.89 min
CC(F)CCCn1cc(C(=O)C2C(C)(C)C2(C)C)c2ccccc21 (stereo not drawn) [XLR-11 Isomer] | 11.6 min
CCCCC(O)(Cn1cncn1)c1ccc(Cl)cc1Cl (centres undefined) [Hexaconazole] | 11.2 min
CC1(C)C(C=CC(=O)OC(C(F)(F)F)C(F)(F)F)C1C(=O)OC(C#N)c1cccc(Oc2ccccc2)c1 (centres undefined) [Acrinathrin] | 9.17 min
CCCCCOC(=O)Nc1nc(=O)n(C2OC(C)C(O)C2O)cc1F (centres undefined) [Capecitabin] | 7.59 min
COC(=O)CSP(=S)(OC)OC | 7.16 min
CC(=O)NCC1CN(c2ccc(N3CCOCC3)c(F)c2)C(=O)O1 (centres undefined) [Linezolid] | 5.56 min
CCOC(=O)c1ncn2c1CN(C)C(=O)c1cc(F)ccc1-2 [Flumazenil] | 6.04 min
CCCSc1cc(OC)c(CCN)cc1OC [2C-T-7] | 6.98 min
COC(=O)NS(=O)(=O)c1ccc(N)cc1 [Asulam] | 3.41 min
CCOC(=O)N(C)C(=O)CSP(=S)(OCC)OCC [Mecarbam] | 10.2 min
CCNc1nc(NC(C)(C)C)nc(OC)n1 [Terbumeton] | 9.16 min
CCCc1ccc(C(=O)c2cn(CCC)c3ccccc23)c2ccccc12 [JWH-180] | 12.7 min
CC1(C)OC2CC3C4CCC5=CC(=O)C=CC5(C)C4C(O)CC3(C)C2(C(=O)CO)O1 (centres undefined) [Desonide] | 9.04 min
CN(C)CCOC(c1ccccc1)c1ccccc1 [Diphenhydramine] | 6.63 min
CCCC(C(=O)c1ccc(C)cc1)N1CCCC1 (centres undefined) [Pyrovalerone] | 6.03 min
Oc1ccc(C=Cc2cc(O)cc(O)c2)cc1 [Resveratrol] | 5.93 min
COc1cc(OC)nc(NC(=O)NS(=O)(=O)c2ncccc2C(=O)N(C)C)n1 [Nicosulfuron] | 6.62 min
COP(=O)(OC)Oc1ccc([N+](=O)[O-])cc1 [Paraoxon-methyl] | 6.36 min
O=C(CCCl)NCc1ccccc1 [Beclamide] | 6.27 min
CCC1C2CC3C4N(C)c5ccccc5C45CC(C2C5O)N3C1O (centres undefined) [Ajmaline] | 5.19 min
NS(=O)(=O)c1cc2c(cc1Cl)NC(CSCc1ccccc1)=NS2(=O)=O [Benzthiazide] | 6.81 min

SMILES | LC retention time
CON=C(C1=NOCCO1)c1ccccc1Oc1ncnc(Oc2ccccc2Cl)c1F [Fluoxastrobin] | 9.95 min
CC1(C)C(C(=O)c2cn(CCN3CCOCC3)c3ccccc23)C1(C)C [A-796.260] | 10.7 min
CCOP(=S)(OCC)Oc1cnc2ccccc2n1 [Quinalphos] | 10.8 min
COP(=S)(OC)Oc1cc(Cl)c(I)cc1Cl [Iodofenphos (Jodfenphos)] | 12.7 min
CCCNC1CCc2nc(N)sc2C1 (centres undefined) [Pramipexole] | 2.64 min
CCOC(=O)CC(O)(CC(=O)OCC)C(=O)OCC [Triethylcitrate] | 6.94 min
CN(C)CCOc1ccccc1Cc1ccccc1 [Phenyltoloxamine] | 7.29 min
CN(C)CCCN1c2ccccc2Sc2ccc(Cl)cc21 [Chlorpromazine] | 8.89 min
COP(=S)(OC)Oc1cc(Cl)c(Cl)cc1Cl [Fenclofos.Ronnel] | 12.5 min
CC(NCCC(c1ccccc1)c1ccccc1)c1ccccc1 (centres undefined) [Fendiline] | 8.54 min
N#CCNC(=O)c1cnccc1C(F)(F)F [Flonicamid] | 4.22 min
COc1cc(CC(C)N)c(OC)cc1Cl (centres undefined) [DOC] | 5.67 min
CCC(C)n1c(=O)[nH]c(C)c(Br)c1=O (centres undefined) [Bromacil] | 7.07 min
CCOP(=S)(Oc1cnc(C(C)(C)C)nc1)OC(C)C (centres undefined) [Tebupirimphos] | 12.3 min
NC(Cc1ccc(N(CCCl)CCCl)cc1)C(=O)O (centres undefined) [Melphalan] | 7.01 min
CC(Cc1ccc(C(C)C(=O)O)cc1)C(=O)O (centres undefined) [Ibuprofen-Carboxy] | 6.99 min
CC(CN1c2ccccc2Sc2ccccc21)N(C)C (centres undefined) [Promethazine] | 7.53 min
CCC(NC)C(=O)c1ccc2c(c1)OCO2 (centres undefined) [Butylone] | 4.34 min
CCOP(=S)(OCC)Oc1cc(C)nc(C(C)C)n1 [Diazinon] | 11 min
Cc1cnc(NC(=O)C2=C(O)c3ccccc3S(=O)(=O)N2C)s1 [Meloxicam] | 7.09 min
CNC(=O)Oc1cccc2c1OC(C)(C)C2 [Carbofuran] | 7.01 min
COCc1c(C(C)C)nc(C(C)C)c(C=CC(O)CC(O)CC(=O)O)c1-c1ccc(F)cc1 (centres undefined) [Cerivastatin] | 11.6 min
CC(=O)N1CCN(c2ccc(OCC3COC(Cn4ccnc4)(c4ccc(Cl)cc4Cl)O3)cc2)CC1 (centres undefined) [Ketoconazole] | 9.4 min

SMILES | LC retention time
Nc1c(Cl)c(Cl)nc(C(=O)O)c1Cl [Picloram] | 3.56 min
CCOC(=O)C(C)N(C(=O)c1ccccc1)c1ccc(Cl)c(Cl)c1 (centres undefined) [Benzoylprop-ethyl] | 11 min
CC(C)(C(=O)c1cccnc1)c1cccnc1 [Metyrapone] | 6.21 min
CC1CCN(CCCC(=O)c2ccc(F)cc2)CC1 [Melperone] | 5.21 min
CCCCCn1cc(C(=O)NC(C(N)=O)C(C)(C)C)c2ccccc21 (centres undefined) [ADBICA] | 11.1 min
CCS(=O)(=O)CCSP(=O)(OC)OC [Demeton-S-methylsulfone] | 4.15 min
COC(=O)c1c(C(F)F)nc(C(F)(F)F)c(C2=NCCS2)c1CC(C)C [Thiazopyr] | 10.7 min
CCNC(C)C(=O)c1ccc2c(c1)OCO2 (centres undefined) [Ethylone] | 4.04 min
CON=C(C(=O)OC)c1ccccc1COc1ccccc1C [Kresoxim-methyl] | 10.8 min
CC12CCC3=C4CCC(=O)C=C4CCC3C1CCC2(O)CC#N (centres undefined) [Dienogest] | 8.09 min
CCN(CC)C(=O)SCc1ccc(Cl)cc1 [Thiobencarb] | 11.4 min
COC(=O)C(C)N(C(=O)Cc1ccccc1)c1c(C)cccc1C (centres undefined) [Benalaxyl] | 10.9 min
C=CCN(CC=C)C(=O)C(Cl)Cl [Dichlormid] | 7.18 min
CCCN1CCCCC1C(=O)Nc1c(C)cccc1C (centres undefined) [Ropivacaine] | 5.39 min
COCCCOc1cc(CC(CC(N)C(O)CC(C(=O)NCC(C)(C)C(N)=O)C(C)C)C(C)C)ccc1OC (centres undefined) [Aliskiren] | 8.87 min
CCOc1cc(OP(=S)(OC)OC)nc(CC)n1 [Etrimfos] | 11 min
CN(C)CCCN1c2ccccc2Sc2ccccc21 [Promazine] | 7.69 min
Nc1ccc(N=Nc2ccccc2)c(N)n1 [Phenazopyridine] | 8.49 min
COc1nc(C)nc(NC(=O)NS(=O)(=O)c2ccccc2OCCCl)n1 [Triasulfuron] | 6.6 min
OC(Cn1cncn1)(c1ccc(F)cc1)c1ccccc1F (centres undefined) [Flutriafol] | 8.12 min
CCCOc1ccc(C(=O)CCN2CCCCC2)cc1 [Propipocaine] | 6.24 min
COc1ccc(C(C[N+](C)(C)[O-])C2(O)CCCCC2)cc1 (centres undefined) [Venlafaxine-N-oxide] | 6.94 min
CNC1C(C)OC(OC2C(C)OC(OC3C(C)=CCC4CC(CC5(C=CC(C)C(C(C)C)O5)O4)OC(=O)C4C=C(C)C(O)C5OCC(=CC=CC3C)C45O)CC2OC)CC1OC (centres undefined) [Emamectin B1b] | 12 min

SMILES | LC retention time
CCNC(C)Cc1ccccc1 (centres undefined) [Amphetamine-N-Ethyl] | 4.4 min
CCCSC(=O)N(CCC)CCC [Vernolate] | 11.5 min
CNC(C)C1CCC(N)C(OC2C(N)CC(N)C(OC3OCC(C)(O)C(NC)C3O)C2O)O1 (centres undefined) [Gentamycin] | 11.6 min
COP(=S)(OC)Oc1c(Cl)cc(C)cc1Cl [Tolclofos-methyl] | 11.4 min
Cc1cc2c(OCC(O)CNC(C)C)cccc2[nH]1 (centres undefined) [Mepindolol] | 4.44 min
CNCC1CCCCC1(O)c1cccc(OC)c1 (centres undefined) [Tramadol-Nor (Tramadol-N-desmethyl)] | 5.3 min
C[N+](C)(C)CCCl [Chlormequat] | 1.67 min
CC1(C)C(C(=O)c2cn(CC3CCOCC3)c3ccccc23)C1(C)C [A-834.735] | 11.4 min
CSc1ccc2c(c1)N(CCC1CCCCN1C)c1ccccc1S2 (centres undefined) [Thioridazine] | 9.34 min
C=C(C)C1Cc2c(ccc3c2OC2COc4cc(OC)c(OC)cc4C2C3=O)O1 (centres undefined) [Rotenone] | 10.5 min
CC12CCC(=O)C=C1CCC1C2CCC2(C)C1CCC2(C)O (stereo not drawn) [Testosterone- 17-alpha-methyl] | 10.4 min
CCCCC1(COC(=O)CCC(=O)O)C(=O)N(c2ccccc2)N(c2ccccc2)C1=O [Suxibuzone] | 9.61 min
CCc1cccc(CC)c1N(COC)C(=O)CS(=O)(=O)O [Alachlor-ESA] | 7.19 min
CNCCC(Oc1cccc2ccccc12)c1cccs1 (centres undefined) [Duloxetine] | 8.11 min
O=S(=O)(c1ccc(Cl)cc1)c1cc(Cl)c(Cl)cc1Cl [Tetradifon] | 12.2 min
CN(C(=O)CN(CCO)CC(=O)N(C)C(C)(C)Cc1ccccc1)C(C)(C)Cc1ccccc1 [Oxetacaine] | 10.9 min
CCCN(CC)CC1COC2(CCC(C(C)(C)C)CC2)O1 (centres undefined) [Spiroxamine] | 9.32 min
O=CNC(N1CCN(C(NC=O)C(Cl)(Cl)Cl)CC1)C(Cl)(Cl)Cl (centres undefined) [Triforine] | 8.65 min
CC(N)Cc1ccc(F)cc1 (centres undefined) [Amphetamine (4-F-)] | 4.39 min
CC(C)(C)NCC(O)COc1nsnc1N1CCOCC1 (centres undefined) [Timolol] | 4.88 min
